Source: patent US8188078B2 (Sanofi-Aventis, priority 2007, dated 2012)

Tests used:
MET = molecular target: T1, MET (Homo sapiens, UniProt P08581); test: Test C: inhibition of the autophosphorylation of MET, ELISA technique (pppY1230, 1234, 1235), MKN45 cells; format: cell-based
T1 construct: endogenous in cells; host or cells: MKN45 cells
Method in brief: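 MKN45 cells adhered 24 h, then treated 1 h with compound at 6 concentrations in duplicate, final range 10000 to 30 nM. Lysates assayed by phospho-MET (pY1230/1234/1235) sandwich ELISA with HRP chromogen read at 450 nm.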

T1 sequence (P08581 25-1390): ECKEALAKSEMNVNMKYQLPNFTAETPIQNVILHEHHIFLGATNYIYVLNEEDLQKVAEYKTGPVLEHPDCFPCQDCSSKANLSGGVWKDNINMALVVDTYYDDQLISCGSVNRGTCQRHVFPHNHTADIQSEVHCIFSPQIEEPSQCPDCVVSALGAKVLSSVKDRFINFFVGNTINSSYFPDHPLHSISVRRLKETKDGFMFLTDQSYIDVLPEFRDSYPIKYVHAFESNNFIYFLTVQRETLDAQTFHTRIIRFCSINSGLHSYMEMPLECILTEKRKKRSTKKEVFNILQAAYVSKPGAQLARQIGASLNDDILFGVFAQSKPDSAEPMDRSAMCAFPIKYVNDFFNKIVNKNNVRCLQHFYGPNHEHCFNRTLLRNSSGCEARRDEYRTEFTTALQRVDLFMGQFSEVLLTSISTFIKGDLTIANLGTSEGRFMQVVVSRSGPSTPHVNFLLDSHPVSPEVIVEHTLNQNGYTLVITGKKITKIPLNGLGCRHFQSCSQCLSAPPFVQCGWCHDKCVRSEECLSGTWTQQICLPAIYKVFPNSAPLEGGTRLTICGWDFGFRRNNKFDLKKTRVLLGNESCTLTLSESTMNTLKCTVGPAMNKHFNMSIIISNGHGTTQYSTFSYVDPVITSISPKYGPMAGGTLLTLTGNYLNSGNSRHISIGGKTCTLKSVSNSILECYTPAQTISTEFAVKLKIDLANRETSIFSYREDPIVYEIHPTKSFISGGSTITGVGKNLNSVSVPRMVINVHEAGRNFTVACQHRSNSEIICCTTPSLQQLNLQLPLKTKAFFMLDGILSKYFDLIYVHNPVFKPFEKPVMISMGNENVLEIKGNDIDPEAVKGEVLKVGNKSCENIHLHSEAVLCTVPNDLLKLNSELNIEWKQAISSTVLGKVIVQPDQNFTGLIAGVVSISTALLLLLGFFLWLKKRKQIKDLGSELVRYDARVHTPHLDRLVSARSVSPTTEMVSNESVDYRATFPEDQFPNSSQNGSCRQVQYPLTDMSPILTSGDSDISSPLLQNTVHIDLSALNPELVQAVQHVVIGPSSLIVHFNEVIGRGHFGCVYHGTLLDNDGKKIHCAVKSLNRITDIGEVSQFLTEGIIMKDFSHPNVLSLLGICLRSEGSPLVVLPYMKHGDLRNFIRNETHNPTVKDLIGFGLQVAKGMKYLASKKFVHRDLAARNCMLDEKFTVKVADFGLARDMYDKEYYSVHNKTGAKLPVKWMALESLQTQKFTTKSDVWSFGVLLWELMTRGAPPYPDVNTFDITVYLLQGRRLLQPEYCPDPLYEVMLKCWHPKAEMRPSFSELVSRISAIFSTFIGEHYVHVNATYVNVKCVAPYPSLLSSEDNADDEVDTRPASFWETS

| SMILES | melting point [°C] | IC50 (MET) [nM] |
| --- | --- | --- |
| CC(Oc1ccc2nc(NC(=O)NCCN3CCN(Cc4ccccc4)CC3)sc2c1)c1c(Cl)ccc(F)c1Cl (stereo not drawn) [Example 35, 1-[2-(4-benzylpiperazin-1-yl)ethyl]-3-{6-[1-(2,6-dichloro-3-fluorophenyl)ethoxy]-1,3-benzothiazol-2-yl}urea] | 125 to 139 | 500 to 10000 |
| CC(Oc1ccc2nc(NC(=O)CCCN3CCOCC3)sc2c1)c1c(Cl)ccc(F)c1Cl (stereo not drawn) [Example 65, N-{6-[1-(2,6-dichloro-3-fluorophenyl)ethoxy]-1,3-benzothiazol-2-yl}-4-(morpholin-4-yl)butanamide] | 141 to 145 | 500 to 10000 |
| CC(Oc1cc2sc(NC(=O)NCCOCC3CC3)nc2cc1F)c1c(Cl)ccc(F)c1Cl (stereo not drawn) [Example 103, 1-[2-(cyclopropylmethoxy)ethyl]-3-{6-[1-(2,6-dichloro-3-fluorophenyl)ethoxy]-5-fluoro-1,3-benzothiazol-2-yl}urea] | 178 to 184 | 500 to 10000 |
| CC(Oc1cc2sc(NC(=O)NCCN3CCOCC3)nc2cc1F)c1c(F)ccc(Cl)c1Cl (stereo not drawn) [Example 111, 1-{6-[1-(2,3-dichloro-6-fluorophenyl)ethoxy]-5-fluoro-1,3-benzothiazol-2-yl}-3-[2-(morpholin-4-yl)ethyl]urea] | 220 to 225 | 500 to 10000 |
| CC(Oc1ccc2nc(NC(=O)NCCN3CCOCC3)sc2c1)c1c(Cl)cccc1Cl (stereo not drawn) [Example 17, 1-{6-[1-(2,6-dichlorophenyl)ethoxy]-1,3-benzothiazol-2-yl}-3-(2-morpholin-4-ylethyl)urea] | 165 to 168 | 500 to 10000 |

The remaining lines, values ahead:

| melting point [°C] | IC50 (MET) [nM] | SMILES |
| --- | --- | --- |
| 200 to 205 | < 500 | CC(Oc1cc2sc(NC(=O)NCCN3CCOCC3)nc2cc1F)c1c(Cl)cccc1Cl (stereo not drawn) [Example 29, 1-{6-[1-(2,6-dichlorophenyl)ethoxy]-5-fluoro-1,3-benzothiazol-2-yl}-3-(2-morpholin-4-ylethyl)urea] |
| 138 to 169 | < 500 | CC(Oc1ccc2nc(NC(=O)NCCN3CCNCC3)sc2c1)c1c(Cl)ccc(F)c1Cl.O=C(O)C(F)(F)F (stereo not drawn) [Example 37, 1-{6-[1-(2,6-Dichloro-3-fluorophenyl)ethoxy]-1,3-benzothiazol-2-yl}-3-(2-piperazin-1-ylethyl)urea trifluoroacetate] |
| 226 to 228 | < 500 | CC(Oc1cc2sc(NC(=O)NCCN3CCOCC3)nc2cc1F)c1c(Cl)ccc(F)c1Cl (stereo not drawn) [Example 31, 1-{6-[1-(2,6-dichloro-3-fluorophenyl)ethoxy]-5-fluoro-1,3-benzothiazol-2-yl}-3-(2-morpholin-4-ylethyl)urea] |
| 189 | < 500 | CC(Oc1ccc2nc(NC(=O)NCCN3CCOCC3)sc2c1)c1c(Cl)ccc(Cl)c1Cl (stereo not drawn) [Example 124, 1-[2-(morpholin-4-yl)ethyl]-3-{6-[1-(2,3,6-trichlorophenyl)ethoxy]-1,3-benzothiazol-2-yl}urea] |
| 158 | < 500 | CC(Oc1cc2sc(NC(=O)NCCCO)nc2cc1F)c1c(Cl)ccc(F)c1Cl (stereo not drawn) [Example 105, 1-{6-[1-(2,6-dichloro-3-fluorophenyl)ethoxy]-5-fluoro-1,3-benzothiazol-2-yl}-3-(3-hydroxypropyl)urea] |
| 191 | < 500 | CC(Oc1cc2sc(NC(=O)NCCN3CCCC3)nc2cc1F)c1c(F)ccc(Cl)c1Cl (stereo not drawn) [Example 118, 1-{6-[1-(2,3-dichloro-6-fluorophenyl)ethoxy]-5-fluoro-1,3-benzothiazol-2-yl}-3-[2-(pyrrolidin-1-yl)ethyl]urea] |
| 110 to 115 | < 500 | CC(Oc1ccc2nc(NC(=O)NCCN3CCCC3)sc2c1)c1c(F)ccc(Cl)c1Cl (stereo not drawn) [Example 120, 1-{6-[1-(2,3-dichloro-6-fluorophenyl)ethoxy]-1,3-benzothiazol-2-yl}-3-[2-(pyrrolidin-1-yl)ethyl]urea] |
